Source: patent US8168236B2, “Extracts of Polygonum multiflorum thunb., and preparation process and uses of the same” (National Yang-Ming University, priority 2003, dated 2012)

Experiments:
[1] = test system: EGF-stimulated bone marrow cells; assay: MTT assay, proliferation of EGF-stimulated bone marrow cells; format: cell-based, mouse; settings: positive control, 50 ng/ml EGF
Protocol: Under sterile condition, C57BL/6j (male, 15-20 g, 4-6 weeks old) were sacrificed, and their femoral bones were injected with DMEM/F12 culture medium (Gibco, N.Y. USA) so as to flush out the bone marrow cells. The collected cells in DMEM/F12 culture medium were then filtered through a sterile No. 53 nylon mesh so as to obtain a single cell suspension, the cell concentration of which was subsequently adjusted to 6×10^5 cells/ml with DMEM/F12 culture medium containing N2 supplement (Sigma, Mo., USA).
The mouse bone marrow cells (1.5×10^5 nucleated cells/well) as prepared in the above Procedure (I) were placed into 96-well culture plates and incubated in 200 μl of a defined medium (DMEM/F12 plus N2 supplement) supplemented with EGF (at a final concentration of 10 ng/ml). After incubation at 37° C. for 24 hrs, different concentrations (0.01 μg/ml, […], 1 μg/ml, 10 μg/ml and 100 μg/ml) of the extracts of Polygonum multiflorum Thunb. root obtained in Example 1 were added into the wells of the culture plates, respectively. […]
Subsequently, MTT assay was performed. […] The culture plates were allowed to stand for 14 hours and then subjected to absorbance detection using a microplate reader at O.D. 550 nm-O.D. 690 nm. […] The obtained experimental data were analyzed by Student's t-test.

[2] = test system: dexamethasone-stimulated mouse primary bone marrow cell cultures; assay: Alkaline phosphatase colorimetry, dexamethasone-stimulated osteogenic cell maturation (test A); format: cell-based; settings: positive control, 0.1 nM estrogen
Protocol: Under sterile condition, C57BL/6j (male, 15-20 g, 4-6 weeks old) were sacrificed, and their femoral bones were injected with alpha-minimal essential medium (α-MEM) culture medium (Gibco, N.Y., USA) so as to flush out the bone marrow cells. The collected cells in α-MEM culture medium were then filtered through a sterile No. 53 nylon mesh so as to obtain a single cell suspension.
The mouse bone marrow cells (1.5×10^5 nucleated cells/well) as prepared in the above Procedure (I) were placed into 96-well culture plates and incubated in α-MEM supplemented with 15% FCS, 10 μM dexamethazone, 50 μg/ml ascorbic acid, and 10 mM sodium, β-glycerophosphate. After incubation at 37° C. for 48 hrs, extracts of Polygonum multiflorum Thunb. root with different concentrations (0.01 μg/ml, 0.1 μg/ml, 1 μg/ml, 10 μg/ml, 100 μg/ml and 1000 μg/ml) were added into the wells of the culture plates, respectively. […]
The alkaline phosphatase (AP) colorimetry (Aubin, J. E. et al. (1995), Bone, 17: 77S-83S; Sabokbar, A. et al. (1994), Bone & Mineral, 27: 57-67) was conducted as follows: The culture medium in each well of the culture plates was removed, and the remaining cells were added with 120 μl of 0.01% SDS and incubated in a 37° C. incubator for 10 minutes. […] After a reaction time of 10-15 minutes at 37° C., the culture plates were subjected to absorbance detection at O.D. 405 nm.

[3] = test system: mGM-CSF-stimulated mouse primary bone marrow cultures; assay: MTT assay, mGM-CSF-stimulated proliferation of bone marrow cultures; format: cell-based; settings: positive control, mGM-CSF 20 ng/ml
Protocol: Subsequently, MTT assay was performed. Each well of the culture plates was added with a MTT solution (5 mg/ml dissolved in 1×PBS) to a final concentration of 1 mg/ml. Four hours later, each well of the culture plates was added with a MTT lysis buffer (20% sodium dodecyl sulfate (SDS) in 50% dimethylformamide (DMF)/50% H2O) in an amount of 150 μl/well. The culture plates were allowed to stand for 14 hours and then subjected to absorbance detection using a microplate reader at O.D. 550 nm-O.D. 690 nm. Each experiment was conducted in duplicate, and n=6 wells for each group. The obtained experimental data were analyzed by Student's t-test.
The mouse bone marrow cells (1.5×10^5 nucleated cells/well) prepared according to the procedures set forth in Procedure (I) of Example 5 were placed into 96-well culture plates and incubated in RPMI supplemented with 5% FCS and mGM-CSF (at a final concentration of 2 ng/ml). After incubation at 37° C. for 24 hrs, extracts of the Polygonum multiflorum Thunb. root with different concentrations (0.1 μg/ml, 1 μg/ml, 10 μg/ml and 100 μg/ml) were added into the wells of the culture plates, respectively. The positive control group was treated with 20 ng/ml mGM-CSF, and the negative control group was treated with 2 ng/ml mGM-CSF. […]

EGF: epidermal growth factor, 50 ng/ml positive control
Proliferation index [1]: 1.26 (±0.13)

estrogen
AP activity index [2]: 1.28

B1: mGM-CSF: granulocyte-monocyte colony stimulating factor, 20 ng/ml positive control (protein, UniProt P01587 18-141, looked up)
Granulocyte-macrophage …: APTRSPITVTRPWKHVEAIKEALNLLDDMPVTLNEEVEVVSNEFSFKKLTCVQTRLKIFEQGLRGNFTKLKGALNMTASYYQTYCPPTPETDCETQVTTYADFIDSLKTFLTDIPFECKKPGQK
Proliferation index [3]: 2.05
